System: patients with unresectable HCC
Experiment: Open-label phase 3 study, safety and side-effect profile (CTCAE v4.0)
Text: Randomization was stratified according to region (Asia-Pacific or Western regions), macroscopic portal vein invasion and/or extrahepatic spread (yes or no), Eastern Cooperative Oncology Group performance status (0 or 1), and body weight (<60 kg or ≥60 kg).
Safety assessments included recording of vital signs, hematologic and biochemical laboratory testing, urinalysis, and electrocardiography.

COc1cc2nccc(Oc3ccc(NC(=O)NC4CC4)c(Cl)c3)c2cc1C(N)=O [Lenvatinib, 4-(3-chloro-4(cyclopropylaminocarbonyl)aminophenoxy)-7-methoxy-6-quinolinecarboxamide]
TEAE: Decreased appetite (8 mg per day): 33.1% | TEAE: Diarrhea (8 mg per day): 35.1% | TEAE: Hypertension (8 mg per day): 43.0% | TEAE: decreased weight (8 mg per day): 28.5% | Dose reduction/interruption: Abdominal pain (8 mg starting dose): 2 (1.3) n (%) | Dose reduction/interruption: Abdominal pain upper (8 mg starting dose): 2 (1.3) n (%) | Dose reduction/interruption: Alanine aminotransferase increased (8 mg starting dose): 2 (1.3) n (%) | Dose reduction/interruption: Anemia (8 mg starting dose): 2 (1.3) n (%) | Dose reduction/interruption: Ascites (8 mg starting dose): 3 (2.0) n (%) | Dose reduction/interruption: Aspartate aminotransferase increased (8 mg starting dose): 4 (2.6) n (%) | Dose reduction/interruption: Asthenia (8 mg starting dose): 3 (2.0) n (%) | Dose reduction/interruption: Blood and lymphatic system disorders (8 mg starting dose): 5 (3.3) n (%) | Dose reduction/interruption: Blood bilirubin increased (8 mg starting dose): 8 (5.3) n (%) | Dose reduction/interruption: Decreased appetite (8 mg starting dose): 15 (9.9) n (%) | Dose reduction/interruption: Dehydration (8 mg starting dose): 3 (2.0) n (%) | Dose reduction/interruption: Diarrhea (8 mg starting dose): 8 (5.3) n (%) | Dose reduction/interruption: Dyspnea (8 mg starting dose): 2 (1.3) n (%) | Dose reduction/interruption: Edema peripheral (8 mg starting dose): 2 (1.3) n (%) | Dose reduction/interruption: Esophageal varices hemorrhage (8 mg starting dose): 0 (0.0) n (%) | Dose reduction/interruption: Fatigue (8 mg starting dose): 5 (3.3) n (%) | Dose reduction/interruption: Gamma-glutamyltransferase increased (8 mg starting dose): 1 (0.7) n (%) | Dose reduction/interruption: Gastrointestinal disorders (8 mg starting dose): 22 (14.6) n (%) | Dose reduction/interruption: General disorders and administration site conditions (8 mg starting dose): 17 (11.3) n (%) | Dose reduction/interruption: Hepatic encephalopathy (8 mg starting dose): 4 (2.6) n (%) | Dose reduction/interruption: Hepatic function abnormal (8 mg starting dose): 0 (0.0) n (%) | Dose reduction/interruption: Hepatobiliary disorders (8 mg starting dose): 2 (1.3) n (%) | Dose reduction/interruption: Hypertension (8 mg starting dose): 3 (2.0) n (%) | Dose reduction/interruption: Hyponatremia (8 mg starting dose): 2 (1.3) n (%) | Dose reduction/interruption: Investigations (8 mg starting dose): 24 (15.9) n (%) | Dose reduction/interruption: Malaise (8 mg starting dose): 2 (1.3) n (%) | Dose reduction/interruption: Metabolism and nutrition disorders (8 mg starting dose): 21 (13.9) n (%) | Dose reduction/interruption: Musculoskeletal and connective tissue disorders (8 mg starting dose): 4 (2.6) n (%) | Dose reduction/interruption: Myalgia (8 mg starting dose): 1 (0.7) n (%) | Dose reduction/interruption: Nausea (8 mg starting dose): 2 (1.3) n (%) | Dose reduction/interruption: Nervous system disorders (8 mg starting dose): 7 (4.6) n (%) | Dose reduction/interruption: Neutropenia (8 mg starting dose): 0 (0.0) n (%) | Dose reduction/interruption: Neutrophil count decreased (8 mg starting dose): 4 (2.6) n (%) | Dose reduction/interruption: Palmar-plantar erythrodysesthesia syndrome (8 mg starting dose): 4 (2.6) n (%) | Dose reduction/interruption: Platelet count decreased (8 mg starting dose): 9 (6.0) n (%) | Dose reduction/interruption: Proteinuria (8 mg starting dose): 4 (2.6) n (%) | Dose reduction/interruption: Pyrexia (8 mg starting dose): 4 (2.6) n (%) | Dose reduction/interruption: Rash (8 mg starting dose): 0 (0.0) n (%) | Dose reduction/interruption: Rash maculo-papular (8 mg starting dose): 0 (0.0) n (%) | Dose reduction/interruption: Renal and urinary disorders (8 mg starting dose): 5 (3.3) n (%) | Dose reduction/interruption: Respiratory, thoracic and mediastinal disorders (8 mg starting dose): 4 (2.6) n (%) | Dose reduction/interruption: Skin and subcutaneous tissue disorders (8 mg starting dose): 5 (3.3) n (%) | Dose reduction/interruption: Stomatitis (8 mg starting dose): 2 (1.3) n (%) | Dose reduction/interruption: Thrombocytopenia (8 mg starting dose): 2 (1.3) n (%) | Dose reduction/interruption: Vascular disorders (8 mg starting dose): 3 (2.0) n (%) | Dose reduction/interruption: Vomiting (8 mg starting dose): 1 (0.7) n (%) | Dose reduction/interruption: Weight decreased (8 mg starting dose): 3 (2.0) n (%) | Dose reduction/interruption: White blood cell count decreased (8 mg starting dose): 3 (2.0) n (%) | Subjects with Any TEAEs (8 mg starting dose): 151 (100.0) n (%) | Subjects with any TEAEs leading to Dose Reduction or Interruption (8 mg starting dose): 81 (53.6) n (%) | TEAE: Abdominal pain (8 mg starting dose): 19 (12.6) n (%) | TEAE: Abdominal pain upper (8 mg starting dose): 21 (13.9) n (%) | TEAE: Alanine aminotransferase increased (8 mg starting dose): 17 (11.3) n (%) | TEAE: Alopecia (8 mg starting dose): 5 (3.3) n (%) | TEAE: Ascites (8 mg starting dose): 21 (13.9) n (%) | TEAE: Aspartate aminotransferase increased (8 mg starting dose): 21 (13.9) n (%) | TEAE: Asthenia (8 mg starting dose): 14 (9.3) n (%) | TEAE: Back pain (8 mg starting dose): 11 (7.3) n (%) | TEAE: Blood bilirubin increased (8 mg starting dose): 23 (15.2) n (%) | TEAE: Constipation (8 mg starting dose): 19 (12.6) n (%) | TEAE: Decreased appetite (8 mg starting dose): 50 (33.1) n (%) | TEAE: Diarrhea (8 mg starting dose): 53 (35.1) n (%) | TEAE: Dysphonia (8 mg starting dose): 28 (18.5) n (%) | TEAE: Edema peripheral (8 mg starting dose): 23 (15.2) n (%) | TEAE: Fatigue (8 mg starting dose): 42 (27.8) n (%) | TEAE: Hypertension (8 mg starting dose): 65 (43.0) n (%) | TEAE: Hypothyroidism (8 mg starting dose): 25 (16.6) n (%) | TEAE: Nausea (8 mg starting dose): 24 (15.9) n (%) | TEAE: Palmar-plantar erythrodysesthesia syndrome (8 mg starting dose): 35 (23.2) n (%) | TEAE: Platelet count decreased (8 mg starting dose): 26 (17.2) n (%) | TEAE: Proteinuria (8 mg starting dose): 37 (24.5) n (%) | TEAE: Pyrexia (8 mg starting dose): 24 (15.9) n (%) | TEAE: Rash (8 mg starting dose): 18 (11.9) n (%) | TEAE: Stomatitis (8 mg starting dose): 11 (7.3) n (%) | TEAE: Vomiting (8 mg starting dose): 22 (14.6) n (%) | TEAE: Weight decreased (8 mg starting dose): 43 (28.5) n (%) | TEAE: Decreased appetite (12 mg per day): 34.5% | TEAE: Diarrhea (12 mg per day): 40.3% | TEAE: Hypertension (12 mg per day): 41.8% | TEAE: decreased weight (12 mg per day): 32.0% | Dose reduction/interruption: Abdominal pain (12 mg starting dose): 4 (1.2) n (%) | Dose reduction/interruption: Abdominal pain upper (12 mg starting dose): 3 (0.9) n (%) | Dose reduction/interruption: Alanine aminotransferase increased (12 mg starting dose): 4 (1.2) n (%) | Dose reduction/interruption: Anemia (12 mg starting dose): 1 (0.3) n (%) | Dose reduction/interruption: Ascites (12 mg starting dose): 7 (2.2) n (%) | Dose reduction/interruption: Aspartate aminotransferase increased (12 mg starting dose): 5 (1.5) n (%) | Dose reduction/interruption: Asthenia (12 mg starting dose): 13 (4.0) n (%) | Dose reduction/interruption: Blood and lymphatic system disorders (12 mg starting dose): 11 (3.4) n (%) | Dose reduction/interruption: Blood bilirubin increased (12 mg starting dose): 12 (3.7) n (%) | Dose reduction/interruption: Decreased appetite (12 mg starting dose): 21 (6.5) n (%) | Dose reduction/interruption: Dehydration (12 mg starting dose): 3 (0.9) n (%) | Dose reduction/interruption: Diarrhea (12 mg starting dose): 28 (8.6) n (%) | Dose reduction/interruption: Dyspnea (12 mg starting dose): 6 (1.8) n (%) | Dose reduction/interruption: Edema peripheral (12 mg starting dose): 4 (1.2) n (%) | Dose reduction/interruption: Esophageal varices hemorrhage (12 mg starting dose): 5 (1.5) n (%) | Dose reduction/interruption: Fatigue (12 mg starting dose): 22 (6.8) n (%) | Dose reduction/interruption: Gamma-glutamyltransferase increased (12 mg starting dose): 6 (1.8) n (%) | Dose reduction/interruption: Gastrointestinal disorders (12 mg starting dose): 65 (20.0) n (%) | Dose reduction/interruption: General disorders and administration site conditions (12 mg starting dose): 50 (15.4) n (%) | Dose reduction/interruption: Hepatic encephalopathy (12 mg starting dose): 16 (4.9) n (%) | Dose reduction/interruption: Hepatic function abnormal (12 mg starting dose): 2 (0.6) n (%) | Dose reduction/interruption: Hepatobiliary disorders (12 mg starting dose): 25 (7.7) n (%) | Dose reduction/interruption: Hypertension (12 mg starting dose): 26 (8.0) n (%) | Dose reduction/interruption: Hyponatremia (12 mg starting dose): 3 (0.9) n (%) | Dose reduction/interruption: Investigations (12 mg starting dose): 57 (17.5) n (%) | Dose reduction/interruption: Malaise (12 mg starting dose): 3 (0.9) n (%) | Dose reduction/interruption: Metabolism and nutrition disorders (12 mg starting dose): 31 (9.5) n (%) | Dose reduction/interruption: Musculoskeletal and connective tissue disorders (12 mg starting dose): 14 (4.3) n (%) | Dose reduction/interruption: Myalgia (12 mg starting dose): 4 (1.2) n (%) | Dose reduction/interruption: Nausea (12 mg starting dose): 14 (4.3) n (%) | Dose reduction/interruption: Nervous system disorders (12 mg starting dose): 28 (8.6) n (%) | Dose reduction/interruption: Neutropenia (12 mg starting dose): 6 (1.8) n (%) | Dose reduction/interruption: Neutrophil count decreased (12 mg starting dose): 7 (2.2) n (%) | Dose reduction/interruption: Palmar-plantar erythrodysesthesia syndrome (12 mg starting dose): 21 (6.5) n (%) | Dose reduction/interruption: Platelet count decreased (12 mg starting dose): 13 (4.0) n (%) | Dose reduction/interruption: Proteinuria (12 mg starting dose): 29 (8.9) n (%) | Dose reduction/interruption: Pyrexia (12 mg starting dose): 8 (2.5) n (%) | Dose reduction/interruption: Rash (12 mg starting dose): 2 (0.6) n (%) | Dose reduction/interruption: Rash maculo-papular (12 mg starting dose): 0 (0.0) n (%) | Dose reduction/interruption: Renal and urinary disorders (12 mg starting dose): 35 (10.8) n (%) | Dose reduction/interruption: Respiratory, thoracic and mediastinal disorders (12 mg starting dose): 12 (3.7) n (%) | Dose reduction/interruption: Skin and subcutaneous tissue disorders (12 mg starting dose): 23 (7.1) n (%) | Dose reduction/interruption: Stomatitis (12 mg starting dose): 4 (1.2) n (%) | Dose reduction/interruption: Thrombocytopenia (12 mg starting dose): 4 (1.2) n (%) | Dose reduction/interruption: Vascular disorders (12 mg starting dose): 30 (9.2) n (%) | Dose reduction/interruption: Vomiting (12 mg starting dose): 11 (3.4) n (%) | Dose reduction/interruption: Weight decreased (12 mg starting dose): 17 (5.2) n (%) | Dose reduction/interruption: White blood cell count decreased (12 mg starting dose): 3 (0.9) n (%) | Subjects with Any TEAEs (12 mg starting dose): 319 (98.2) n (%) | Subjects with any TEAEs leading to Dose Reduction or Interruption (12 mg starting dose): 213 (65.5) n (%) | TEAE: Abdominal pain (12 mg starting dose): 62 (19.1) n (%) | TEAE: Abdominal pain upper (12 mg starting dose): 37 (11.4) n (%) | TEAE: Alanine aminotransferase increased (12 mg starting dose): 36 (11.1) n (%)
